Experimental data as given in US20260256792A1, “TREATMENT OF CHRONIC SPONTANEOUS URTICARIA BY ADMINISTERING (R)-2-[3-[4-AMINO-3-(2-FLUORO-4-PHENOXY-PHENYL)PYRAZOLO[3,4-D]PYRIMIDIN-1-YL]PIPERIDINE-1-CARBONYL]-4-METHYL-4-[4-(OXETAN-3-YL)PIPERAZIN-1-YL]PENT-2-ENENITRILE” (priority 2023, published 2026).

System: moderate-to-severe chronic spontaneous urticaria (CSU)
Assay: Phase 2 CSU study: itch severity score over 7 days (ISS7)
Format: in vivo, human
Settings: for ISS7 Post-baseline Mean (SD) / ISS7 % Change difference for rilzabrutinib vs. placebo LS Mean (95% CI) / ISS7 % Change from baseline LS Mean (SE) / ISS7 Change difference for rilzabrutinib vs. placebo LS Mean (95% CI) / ISS7 Change from baseline LS Mean (SE): ITT; for Imputed non-responder n (%) (ISS7 reduction of 5 points or more) / Non-responder n (%) (ISS7 reduction of 5 points or more) / OR for rilzabrutinib vs. placebo (ISS7 reduction of 5 points or more) / RRD (%) for rilzabrutinib vs. placebo (ISS7 reduction of 5 points or more) / Responder n (%) (ISS7 reduction of 5 points or more): Omalizumab-Naïve Population, 400 mg BID
Excerpt: The study comprises a 12 week, randomized, double-blind, placebo-controlled, multi-center, dose-ranging efficacy and safety phase, followed by a 40 week open label extension (OLE) phase (see FIG. 1). The study consists of three phases and an optional OLE phase. […] Clinically, CSU is characterized by the spontaneous and recurrent appearance of pruritic hives. The proposed primary endpoints were the UAS7 at Week 12 in EU and EU reference countries and the ISS7 in the US. Regardless of where a participant was from, all assessments were the same. The UAS7 score is a composite score containing both the HSS7 and the ISS7. This allowed a global assessment of the two key components of urticaria: hives and itch. […] The UAS is a validated PRO measure. […] The daily UAS scores range from 0 to 6 point/day. […] Patients were to complete the UAS using the e-diary. […] The following secondary endpoints were to be analyzed using the same approach as for the primary endpoint: • Change from baseline in UAS7 at Week 4 • Change from baseline in UAS7 at Week 12 (for US and US reference countries) • Change from baseline in ISS7 at Week 12 (except US and US reference countries) • Change from baseline in HSS7 at Week 12

## CC(C)(C=C(C#N)C(=O)N1CCC[C@@H](n2nc(-c3ccc(Oc4ccccc4)cc3F)c3c(N)ncnc32)C1)N1CCN(C2COC2)CC1 [rilzabrutinib, (R)-2-[3-[4-amino-3-(2-fluoro-4-phenoxy-phenyl)pyrazolo[3,4-d]pyrimidin-1-yl]piperidine-1-carbonyl]-4-methyl-4-[4-(oxetan-3-yl)piperazin-1-yl]pent-2-enenitrile]
400 mg QPM, Week 8
  ISS7 Post-baseline Mean (SD): 10.61 (5.22)
400 mg QPM, Week 9
  ISS7 % Change difference for rilzabrutinib vs. placebo LS Mean (95% CI): −7.07%
  ISS7 % Change from baseline LS Mean (SE): −37.93%
  ISS7 Change difference for rilzabrutinib vs. placebo LS Mean (95% CI): −0.74
  ISS7 Change from baseline LS Mean (SE): −6.24 (0.96)
  ISS7 Post-baseline Mean (SD): 10.45 (5.08)
400 mg QPM, Week 10
  ISS7 % Change difference for rilzabrutinib vs. placebo LS Mean (95% CI): −1.26%
  ISS7 % Change from baseline LS Mean (SE): −39.07 (6.29) %
  ISS7 Change difference for rilzabrutinib vs. placebo LS Mean (95% CI): −0.17
  ISS7 Change from baseline LS Mean (SE): −6.47 (1.02)
  ISS7 Post-baseline Mean (SD): 10.36 (5.24)
400 mg QPM, Week 11
  ISS7 % Change difference for rilzabrutinib vs. placebo LS Mean (95% CI): −3.30%
  ISS7 % Change from baseline LS Mean (SE): −36.92 (6.23) %
  ISS7 Change difference for rilzabrutinib vs. placebo LS Mean (95% CI): −0.04
  ISS7 Change from baseline LS Mean (SE): −5.90 (0.99)
  ISS7 Post-baseline Mean (SD): 10.97 (5.48)
400 mg QPM, Week 12
  ISS7 % Change difference for rilzabrutinib vs. placebo LS Mean (95% CI): 1.35%
  ISS7 % Change from baseline LS Mean (SE): −35.23 (6.55) %
  ISS7 Change difference for rilzabrutinib vs. placebo LS Mean (95% CI): 0.85
  ISS7 Change from baseline LS Mean (SE): −5.46 (1.03)
  ISS7 Post-baseline Mean (SD): 11.37 (5.51)
400 mg TID, Week 1
  ISS7 % Change difference for rilzabrutinib vs. placebo LS Mean (95% CI): −29.95%
  ISS7 % Change from baseline LS Mean (SE): −40.41 (5.24) %
  ISS7 Change difference for rilzabrutinib vs. placebo LS Mean (95% CI): −4.65
  ISS7 Change from baseline LS Mean (SE): −6.65 (0.76)
  ISS7 Post-baseline Mean (SD): 9.20 (5.60)
400 mg TID, Week 2
  ISS7 % Change difference for rilzabrutinib vs. placebo LS Mean (95% CI): −29.81%
  ISS7 % Change from baseline LS Mean (SE): −49.29 (5.21) %
  ISS7 Change difference for rilzabrutinib vs. placebo LS Mean (95% CI): −4.51
  ISS7 Change from baseline LS Mean (SE): −7.92 (0.79)
  ISS7 Post-baseline Mean (SD): 7.97 (5.99)
400 mg TID, Week 3
  ISS7 % Change difference for rilzabrutinib vs. placebo LS Mean (95% CI): −27.63%
  ISS7 % Change from baseline LS Mean (SE): −50.07 (5.21) %
  ISS7 Change difference for rilzabrutinib vs. placebo LS Mean (95% CI): −3.76
  ISS7 Change from baseline LS Mean (SE): −7.84 (0.83)
  ISS7 Post-baseline Mean (SD): 7.93 (5.46)
400 mg TID, Week 4
  ISS7 % Change difference for rilzabrutinib vs. placebo LS Mean (95% CI): −23.20%
  ISS7 % Change from baseline LS Mean (SE): −48.97 (5.57) %
  ISS7 Change difference for rilzabrutinib vs. placebo LS Mean (95% CI): −3.13
  ISS7 Change from baseline LS Mean (SE): −7.75 (0.88)
  ISS7 Post-baseline Mean (SD): 7.54 (5.21)
400 mg TID, Week 5
  ISS7 % Change difference for rilzabrutinib vs. placebo LS Mean (95% CI): −21.69%
  ISS7 % Change from baseline LS Mean (SE): −54.96 (5.32) %
  ISS7 Change difference for rilzabrutinib vs. placebo LS Mean (95% CI): −3.36
  ISS7 Change from baseline LS Mean (SE): −8.93 (0.86)
  ISS7 Post-baseline Mean (SD): 6.70 (5.91)
400 mg TID, Week 6
  ISS7 % Change difference for rilzabrutinib vs. placebo LS Mean (95% CI): −26.88%
  ISS7 % Change from baseline LS Mean (SE): −55.31 (5.83) %
  ISS7 Change difference for rilzabrutinib vs. placebo LS Mean (95% CI): −4.09
  ISS7 Change from baseline LS Mean (SE): −8.97 (0.93)
  ISS7 Post-baseline Mean (SD): 6.81 (6.20)
400 mg TID, Week 7
  ISS7 % Change difference for rilzabrutinib vs. placebo LS Mean (95% CI): −24.96%
  ISS7 % Change from baseline LS Mean (SE): −53.83 (5.69) %
  ISS7 Change difference for rilzabrutinib vs. placebo LS Mean (95% CI): −3.71
  ISS7 Change from baseline LS Mean (SE): −8.71 (0.91)
  ISS7 Post-baseline Mean (SD): 7.13 (5.42)
400 mg TID, Week 8
  ISS7 % Change difference for rilzabrutinib vs. placebo LS Mean (95% CI): −21.97%
  ISS7 % Change from baseline LS Mean (SE): −54.76 (5.95) %
  ISS7 Change difference for rilzabrutinib vs. placebo LS Mean (95% CI): −3.05
  ISS7 Change from baseline LS Mean (SE): −8.66 (0.95)
  ISS7 Post-baseline Mean (SD): 6.72 (5.76)
400 mg TID, Week 9
  ISS7 % Change difference for rilzabrutinib vs. placebo LS Mean (95% CI): −24.57%
  ISS7 % Change from baseline LS Mean (SE): −55.43 (6.01) %
  ISS7 Change difference for rilzabrutinib vs. placebo LS Mean (95% CI): −3.35
  ISS7 Change from baseline LS Mean (SE): −8.85 (0.95)
  ISS7 Post-baseline Mean (SD): 6.33 (5.52)
400 mg TID, Week 10
  ISS7 % Change difference for rilzabrutinib vs. placebo LS Mean (95% CI): −18.42%
  ISS7 % Change from baseline LS Mean (SE): −56.23 (6.14) %
  ISS7 Change difference for rilzabrutinib vs. placebo LS Mean (95% CI): −2.68
  ISS7 Change from baseline LS Mean (SE): −8.98 (0.99)
  ISS7 Post-baseline Mean (SD): 6.43 (5.48)
400 mg TID, Week 11
  ISS7 % Change difference for rilzabrutinib vs. placebo LS Mean (95% CI): −22.13%
  ISS7 % Change from baseline LS Mean (SE): −55.75 (6.15) %
  ISS7 Change difference for rilzabrutinib vs. placebo LS Mean (95% CI): −3.15
  ISS7 Change from baseline LS Mean (SE): −9.02 (0.96)
  ISS7 Post-baseline Mean (SD): 6.57 (5.76)
400 mg TID, Week 12
  ISS7 % Change difference for rilzabrutinib vs. placebo LS Mean (95% CI): −23.23%
  ISS7 % Change from baseline LS Mean (SE): −59.81 (6.28) %
  ISS7 Change difference for rilzabrutinib vs. placebo LS Mean (95% CI): −3.26
  ISS7 Change from baseline LS Mean (SE): −9.58 (1.01)
  ISS7 Post-baseline Mean (SD): 5.59 (5.58)
Week 1
  Imputed non-responder n (%) (ISS7 reduction of 5 points or more): 0 n (%)
  Non-responder n (%) (ISS7 reduction of 5 points or more): 18 (51.4) n (%)
  OR for rilzabrutinib vs. placebo (ISS7 reduction of 5 points or more): 3.240
  RRD (%) for rilzabrutinib vs. placebo (ISS7 reduction of 5 points or more): 25.3%
  Responder n (%) (ISS7 reduction of 5 points or more): 17 (48.6) n (%)
Week 2
  Imputed non-responder n (%) (ISS7 reduction of 5 points or more): 1 (2.9) n (%)
  Non-responder n (%) (ISS7 reduction of 5 points or more): 17 (48.6) n (%)
  OR for rilzabrutinib vs. placebo (ISS7 reduction of 5 points or more): 2.836
  RRD (%) for rilzabrutinib vs. placebo (ISS7 reduction of 5 points or more): 24.1%
  Responder n (%) (ISS7 reduction of 5 points or more): 18 (51.4) n (%)
